Measured values published in ChEMBL document CHEMBL1201862, “PubChem BioAssay data set” (2004).
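Cultured in 96-well plates, cells were exposed to test compound for 48 hours across five concentrations. Here, GI50 denotes the concentration required for 50% inhibition of growth.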 Calls of active or inactive are those of the source. Rule as the data show it: active = GI50 up to about 1.1 µM and inactive = higher.

Key:
Assay in all cases: NCI anticancer screen, dose series, 48 h
786-0 = system: 786-0
A498 = system: A498
A549 = system: A549
ACHN = system: ACHN
BT-549 = system: BT-549
CAKI-1 = system: CAKI-1
CCRF-CEM = system: CCRF-CEM
COLO 205 = system: COLO 205
DU-145 = system: DU-145
EKVX = system: EKVX
HCC 2998 = system: HCC 2998
HCT-116 = system: HCT-116
HCT-15 = system: HCT-15
HL-60 = system: HL-60
HOP-62 = system: HOP-62
HOP-92 = system: HOP-92
HT-29 = system: HT-29
Hs-578T = system: Hs-578T
IGROV-1 = system: IGROV-1
K562 = system: K562
KM12 = system: KM12
LOX IMVI = system: LOX IMVI
M14 = system: M14
MCF7 = system: MCF7
MDA-MB-231 = system: MDA-MB-231
MDA-MB-435 = system: MDA-MB-435
MDA-N = system: MDA-N
MOLT-4 = system: MOLT-4
Malme-3M = system: Malme-3M
NCI-H23 = system: NCI-H23
NCI-H460 = system: NCI-H460
NCI-H522 = system: NCI-H522
NCI/ADR-RES = system: NCI/ADR-RES
OVCAR-3 = system: OVCAR-3
OVCAR-4 = system: OVCAR-4
OVCAR-5 = system: OVCAR-5
OVCAR-8 = system: OVCAR-8
PC-3 = system: PC-3
RPMI-8226 = system: RPMI-8226
RXF 393 = system: RXF 393
SF-268 = system: SF-268
SF-295 = system: SF-295
SF-539 = system: SF-539
SK-MEL-28 = system: SK-MEL-28
SK-MEL-2 = system: SK-MEL-2
SK-MEL-5 = system: SK-MEL-5
SK-OV-3 = system: SK-OV-3
SN12C = system: SN12C
SNB-19 = system: SNB-19
SNB-75 = system: SNB-75
SW-620 = system: SW-620
T47D = system: T47D
TK-10 = system: TK-10
U-251 = system: U-251
UACC-257 = system: UACC-257
UACC-62 = system: UACC-62
UO-31 = system: UO-31
NCI-H226 = system: NCI-H226

## CC1CNC(c2cccc(OCc3ccc(COc4cccc(C5=NC(C)CN5)c4)cc3)c2)=N1 (centres undefined)
786-0
  GI50: 34.1 µM (inactive)
A498
  GI50: > 100 µM (inactive)
A549
  GI50: 40.6 µM (inactive)
ACHN
  GI50: > 100 µM (inactive)
BT-549
  GI50: 61.5 µM (inactive)
CAKI-1
  GI50: > 100 µM (inactive)
CCRF-CEM
  GI50: 18.9 µM (inactive)
COLO 205
  GI50: 17 µM (inactive)
DU-145
  GI50: 50.8 µM (inactive)
EKVX
  GI50: 45.8 µM (inactive)
HCC 2998
  GI50: 24 µM (inactive)
HCT-116
  GI50: 23.6 µM (inactive)
HCT-15
  GI50: > 100 µM
HL-60
  GI50: 23.2 µM (inactive)
HOP-62
  GI50: 40.6 µM (inactive)
HOP-92
  GI50: > 100 µM (inactive)
HT-29
  GI50: 25.4 µM (inactive)
Hs-578T
  GI50: 20.2 µM (inactive)
IGROV-1
  GI50: > 100 µM (inactive)
K562
  GI50: 5.7 µM (inactive)
KM12
  GI50: 22.7 µM (inactive)
LOX IMVI
  GI50: 22 µM (inactive)
M14
  GI50: > 100 µM (inactive)
MCF7
  GI50: 28.2 µM (inactive)
MDA-MB-231
  GI50: 42.3 µM (inactive)
MDA-MB-435
  GI50: 45.5 µM (inactive)
MDA-N
  GI50: 38.6 µM (inactive)
MOLT-4
  GI50: 19.3 µM (inactive)
Malme-3M
  GI50: 58.5 µM (inactive)
NCI-H23
  GI50: 43.7 µM (inactive)
NCI-H460
  GI50: 22.5 µM (inactive)
NCI-H522
  GI50: 23 µM (inactive)
NCI/ADR-RES
  GI50: > 100 µM (inactive)
OVCAR-3
  GI50: 67.9 µM (inactive)
OVCAR-4
  GI50: 49.7 µM (inactive)
OVCAR-5
  GI50: 40.1 µM (inactive)
OVCAR-8
  GI50: 56.8 µM (inactive)
PC-3
  GI50: 28.9 µM (inactive)
RPMI-8226
  GI50: 15.6 µM (inactive)
RXF 393
  GI50: 40.7 µM (inactive)
SF-268
  GI50: 35.6 µM (inactive)
SF-295
  GI50: 66.8 µM (inactive)
SF-539
  GI50: 16.3 µM (inactive)
SK-MEL-28
  GI50: 61.7 µM (inactive)
SK-MEL-2
  GI50: 20.8 µM (inactive)
SK-MEL-5
  GI50: 22.9 µM (inactive)
SK-OV-3
  GI50: > 100 µM (inactive)
SN12C
  GI50: 19.5 µM (inactive)
SNB-19
  GI50: 68.1 µM (inactive)
SNB-75
  GI50: 22.2 µM (inactive)
SW-620
  GI50: 42.6 µM (inactive)
T47D
  GI50: 35.9 µM (inactive)
TK-10
  GI50: 27.1 µM (inactive)
U-251
  GI50: 35.6 µM (inactive)
UACC-257
  GI50: 12.6 µM (inactive)
UACC-62
  GI50: 99.5 µM (inactive)
UO-31
  GI50: > 100 µM (inactive)

## CC(C)(C)OC(=O)NCCC(=O)NC1(c2cc3ccccc3s2)CCCCC1
786-0
  GI50: 17.5 µM (inactive)
A498
  GI50: 22.9 µM (inactive)
A549
  GI50: 15.9 µM (inactive)
ACHN
  GI50: 24.5 µM (inactive)
BT-549
  GI50: 16.9 µM (inactive)
CAKI-1
  GI50: 21.2 µM (inactive)
CCRF-CEM
  GI50: 12.5 µM (inactive)
COLO 205
  GI50: 17.5 µM (inactive)
DU-145
  GI50: 16.7 µM (inactive)
EKVX
  GI50: 20.9 µM (inactive)
HCC 2998
  GI50: 23.2 µM (inactive)
HCT-116
  GI50: 13.9 µM (inactive)
HCT-15
  GI50: 15.1 µM
HL-60
  GI50: 16.7 µM (inactive)
HOP-62
  GI50: 18.4 µM (inactive)
HOP-92
  GI50: 16.6 µM (inactive)
HT-29
  GI50: 13.8 µM (inactive)
Hs-578T
  GI50: 28.1 µM (inactive)
IGROV-1
  GI50: 17.3 µM (inactive)
K562
  GI50: 12.3 µM (inactive)
KM12
  GI50: 18.7 µM (inactive)
LOX IMVI
  GI50: 18.2 µM (inactive)
M14
  GI50: 18.4 µM (inactive)
MCF7
  GI50: 17.5 µM (inactive)
MDA-MB-231
  GI50: 19.1 µM (inactive)
MDA-MB-435
  GI50: 17.3 µM (inactive)
MDA-N
  GI50: 17.6 µM (inactive)
MOLT-4
  GI50: 10.9 µM (inactive)
Malme-3M
  GI50: 21.5 µM (inactive)
NCI-H226
  GI50: 21.3 µM (inactive)
NCI-H23
  GI50: 15.5 µM (inactive)
NCI-H460
  GI50: 14.8 µM (inactive)
NCI-H522
  GI50: 12.5 µM (inactive)
NCI/ADR-RES
  GI50: 18.1 µM (inactive)
OVCAR-3
  GI50: 15.6 µM (inactive)
OVCAR-4
  GI50: 13.4 µM (inactive)
OVCAR-5
  GI50: 19.7 µM (inactive)
OVCAR-8
  GI50: 17.5 µM (inactive)
PC-3
  GI50: 18.5 µM (inactive)
RPMI-8226
  GI50: 0.759 µM (active)
RXF 393
  GI50: 12.8 µM (inactive)
SF-295
  GI50: 18.4 µM (inactive)
SF-539
  GI50: 15 µM (inactive)
SK-MEL-28
  GI50: 19.1 µM (inactive)
SK-MEL-2
  GI50: 18 µM (inactive)
SK-MEL-5
  GI50: 13.1 µM (inactive)
SK-OV-3
  GI50: 24.4 µM (inactive)
SN12C
  GI50: 18.3 µM (inactive)
SNB-19
  GI50: 17.4 µM (inactive)
SNB-75
  GI50: 17.4 µM (inactive)
SW-620
  GI50: 22.6 µM (inactive)
T47D
  GI50: 8.05 µM (inactive)
TK-10
  GI50: 29 µM (inactive)
U-251
  GI50: 19.3 µM (inactive)
UACC-257
  GI50: 19.1 µM (inactive)
UACC-62
  GI50: 20.6 µM (inactive)
UO-31
  GI50: 16.1 µM (inactive)
